The values that follow come from BindingDB's records for doi:10.1021/jm00098a013 (Duquesne University, 1992).

The assay in a line: Compound was evaluated for the inhibition of Aminoimidazole carboxamide ribonucleotide formyl transferase (AICAR) with (6R) tetrahydrofolate as substrate.

A word on the IC50: it is the point on the concentration scale where inhibition reaches its midpoint.

In turn, `Cc1c2cnc3nc(N)[nH]c(=O)c3c2c(C)n1C` registered an IC50 of more than 95 µM.
